Assay results published in paper PMC6007841 (Journal of medicinal chemistry, 2018).
Entries after “also recorded” stand apart in the source; their conditions may differ. Read-outs that look alike come from different tables or passages of the source. Each block holds one compound with its values, some of them ahead of it. Bridge positions count the residues as written; N and C are the ends. Ends that are not written are not given here. Peptide text beside a SMILES is read from it.

Experiments:
mMC4R = mMC4R (Mus musculus, UniProt P56450); assay: Competitive displacement binding, [125I]-NDP-MSH, mMC4R; details: HEK293 cells
hMC5R = hMC5R (Homo sapiens, UniProt P33032); assay: cAMP AlphaScreen agonist assay, hMC5R; details: hMC5R; up to 100 μM; HEK293 cells, cAMP
mMC5R = mMC5R (Mus musculus, UniProt P41149); assay: cAMP AlphaScreen agonist assay, mMC5R; details: mMC5R; up to 100 μM; HEK293 cells, cAMP
mMC1R = mMC1R (Mus musculus, UniProt Q01727); assay: cAMP AlphaScreen agonist assay, mMC1R; details: mMC1R; up to 100 μM; HEK293 cells, cAMP
hMC4R [1] = biological target: T1, hMC4R (Homo sapiens, UniProt P32245); assay: cAMP AlphaScreen agonist assay, hMC4R; details: hMC4R; up to 100 μM; HEK293 cells, cAMP
hMC1R [2] = biological target: T2, hMC1R (Homo sapiens, UniProt Q01726); assay: cAMP AlphaScreen agonist assay, hMC1R; details: hMC1R; up to 100 μM; HEK293 cells, cAMP
hMC4R [3] = biological target: T1, hMC4R; assay: Competitive displacement binding, [125I]-NDP-MSH, hMC4R
hMC3R = hMC3R (Homo sapiens, UniProt P41968); assay: cAMP AlphaScreen agonist assay, hMC3R; details: hMC3R; up to 100 μM; HEK293 cells, cAMP
mice = assay: Fasting feeding paradigm after central administration in cannulated male mice; format: in vivo, mouse; details: 100 μg at start of 22 h fast, vs saline
mMC3R = mMC3R (Mus musculus, UniProt P33033); assay: cAMP AlphaScreen agonist assay, mMC3R; details: up to 100 μM, HEK293 cells
hMC1R [4] = biological target: T2, hMC1R; assay: Competitive displacement binding, [125I]-NDP-MSH, hMC1R; details: HEK293 cells
melanocortin receptors = assay: cAMP agonist pharmacology at the melanocortin receptors; format: cell-based; details: cAMP based
hMC1R [5] = biological target: T2, hMC1R; details: transiently transfected HEK293 cells, Eu-NDP-MSH, 2 h incubation; cited from earlier work
hMC4R [6] = biological target: T1, hMC4R; details: transiently transfected HEK293 cells, Eu-NDP-MSH, 2 h incubation; cited from earlier work
MC1R [7] = details: B16 cells, cited from earlier work
MC1R [8] = details: cited from earlier work
male Wistar rats [9] = details: ad libitum; adult male Wistar rats; up to 2 nmol; cited from earlier work
MC1R [10] = details: primary melanocytes, cited from earlier work
hMC1R [11] = biological target: T2, hMC1R; details: human MC1R; HEK293 cells; cited from earlier work
male Wistar rats [12] = details: 7 μg (1.2 nmol) ICV at the onset of a 24 h fast, vs vehicle; cited from earlier work

Chain of mMC5R (P41149 whole entry): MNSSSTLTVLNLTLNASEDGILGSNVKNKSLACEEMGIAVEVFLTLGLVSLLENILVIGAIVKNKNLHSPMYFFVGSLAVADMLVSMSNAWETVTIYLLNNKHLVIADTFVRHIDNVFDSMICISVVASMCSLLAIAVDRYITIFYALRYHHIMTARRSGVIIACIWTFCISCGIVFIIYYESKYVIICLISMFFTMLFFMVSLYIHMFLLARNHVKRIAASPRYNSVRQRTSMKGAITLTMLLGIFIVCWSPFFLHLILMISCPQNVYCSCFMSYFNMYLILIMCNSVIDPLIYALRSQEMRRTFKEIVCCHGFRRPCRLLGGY
Chain of mMC1R (Q01727 whole entry): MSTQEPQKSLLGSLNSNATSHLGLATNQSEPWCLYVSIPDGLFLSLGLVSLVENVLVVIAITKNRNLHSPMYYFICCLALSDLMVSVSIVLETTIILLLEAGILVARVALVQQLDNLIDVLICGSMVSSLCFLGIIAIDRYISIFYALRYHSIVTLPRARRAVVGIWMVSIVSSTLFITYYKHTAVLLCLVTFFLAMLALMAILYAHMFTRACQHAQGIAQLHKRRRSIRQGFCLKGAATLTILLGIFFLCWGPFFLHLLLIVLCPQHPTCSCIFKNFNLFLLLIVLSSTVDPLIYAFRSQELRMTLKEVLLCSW
T1 sequence (P32245 whole entry): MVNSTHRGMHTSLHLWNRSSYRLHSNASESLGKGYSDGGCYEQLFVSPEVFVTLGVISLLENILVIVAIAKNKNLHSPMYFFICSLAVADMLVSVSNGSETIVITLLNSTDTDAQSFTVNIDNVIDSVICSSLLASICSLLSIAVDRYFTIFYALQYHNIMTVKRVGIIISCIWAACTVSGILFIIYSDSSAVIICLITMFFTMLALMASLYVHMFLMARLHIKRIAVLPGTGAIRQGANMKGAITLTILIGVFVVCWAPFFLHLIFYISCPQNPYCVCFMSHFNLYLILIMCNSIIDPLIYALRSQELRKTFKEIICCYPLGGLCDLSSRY
T2 sequence (Q01726 whole entry): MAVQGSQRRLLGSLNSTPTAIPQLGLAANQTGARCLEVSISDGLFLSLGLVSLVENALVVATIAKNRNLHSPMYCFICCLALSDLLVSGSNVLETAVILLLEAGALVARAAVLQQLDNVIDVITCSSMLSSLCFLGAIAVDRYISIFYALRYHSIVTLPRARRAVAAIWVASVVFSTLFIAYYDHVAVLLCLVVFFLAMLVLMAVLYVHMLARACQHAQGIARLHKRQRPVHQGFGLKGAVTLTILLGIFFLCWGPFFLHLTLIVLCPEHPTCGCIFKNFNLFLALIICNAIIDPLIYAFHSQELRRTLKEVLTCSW
Chain of mMC3R (P33033 whole entry): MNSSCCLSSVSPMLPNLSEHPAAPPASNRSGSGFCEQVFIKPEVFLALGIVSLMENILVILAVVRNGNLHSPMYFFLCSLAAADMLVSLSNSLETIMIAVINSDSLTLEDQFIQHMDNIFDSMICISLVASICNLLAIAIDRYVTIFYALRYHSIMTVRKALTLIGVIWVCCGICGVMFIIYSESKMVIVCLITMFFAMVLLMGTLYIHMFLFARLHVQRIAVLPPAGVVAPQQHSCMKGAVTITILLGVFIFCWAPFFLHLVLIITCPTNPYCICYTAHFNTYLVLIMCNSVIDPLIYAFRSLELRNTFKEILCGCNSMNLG
Chain of hMC3R (P41968 whole entry): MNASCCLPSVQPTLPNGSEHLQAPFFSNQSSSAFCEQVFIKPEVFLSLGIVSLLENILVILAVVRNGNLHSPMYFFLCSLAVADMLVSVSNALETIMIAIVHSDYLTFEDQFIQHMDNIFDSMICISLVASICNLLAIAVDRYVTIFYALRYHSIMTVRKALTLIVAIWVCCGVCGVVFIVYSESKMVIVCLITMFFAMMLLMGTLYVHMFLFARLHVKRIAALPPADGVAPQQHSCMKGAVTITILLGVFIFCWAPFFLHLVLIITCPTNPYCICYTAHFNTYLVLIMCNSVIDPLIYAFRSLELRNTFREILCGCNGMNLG
Chain of hMC5R (P33032 whole entry): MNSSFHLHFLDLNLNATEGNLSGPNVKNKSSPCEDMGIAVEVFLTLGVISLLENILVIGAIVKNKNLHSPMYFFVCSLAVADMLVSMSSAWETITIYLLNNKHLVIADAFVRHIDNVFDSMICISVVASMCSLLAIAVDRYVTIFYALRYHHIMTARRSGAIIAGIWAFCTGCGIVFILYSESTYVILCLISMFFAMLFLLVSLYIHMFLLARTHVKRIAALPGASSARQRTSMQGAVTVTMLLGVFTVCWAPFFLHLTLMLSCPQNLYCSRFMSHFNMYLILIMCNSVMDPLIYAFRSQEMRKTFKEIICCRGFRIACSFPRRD
Chain of mMC4R (P56450 whole entry): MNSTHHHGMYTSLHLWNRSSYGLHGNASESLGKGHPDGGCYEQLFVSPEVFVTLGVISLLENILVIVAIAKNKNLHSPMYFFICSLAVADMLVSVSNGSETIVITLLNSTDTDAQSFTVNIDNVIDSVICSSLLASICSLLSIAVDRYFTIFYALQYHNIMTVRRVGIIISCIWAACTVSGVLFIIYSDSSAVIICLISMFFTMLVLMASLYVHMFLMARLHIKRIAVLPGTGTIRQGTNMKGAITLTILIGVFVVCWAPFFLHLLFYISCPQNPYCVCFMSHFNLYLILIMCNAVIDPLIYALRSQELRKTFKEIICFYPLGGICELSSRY

Displacement of radiolabeled NDP-MSH (in words) (mMC4R): unable to displace
Agonist efficacy (in words) (hMC5R): no activity
Displacement of radiolabeled NDP-MSH (in words) (hMC4R [3]; HEK293 cells): unable to displace
Displacement of radiolabeled NDP-MSH (in words) (hMC1R [4]): unable to displace
Compound: CC(C)C[C@@H]1NC(=O)[C@@H]2CSSC[C@@H]3NC(=O)[C@H]([C@@H](C)O)NC(=O)CNC(=O)[C@H](CCC(N)=O)NC(=O)[C@H](CC(C)C)NC(=O)[C@H](CCCCN)NC(=O)[C@H]([C@@H](C)O)NC(=O)[C@H](CC(N)=O)NC(=O)[C@H](CO)NC(=O)[C@@H]4CCCN4C(=O)[C@H](CSSC[C@@H](C(=O)N[C@@H](CCCCN)C(=O)N[C@@H](CO)C(=O)O)NC(=O)[C@H](CSSC[C@H](NC(=O)[C@H](CCCCN)NC(=O)[C@H](Cc4ccc(O)cc4)NC(=O)[C@H](CCC(N)=O)NC(=O)[C@@H](N)CC(=O)O)C(=O)N[C@@H](CC(C)C)C(=O)N[C@@H](CCC(N)=O)C(=O)N[C@@H](Cc4c[nH]cn4)C(=O)NCC(=O)NCC(=O)N[C@@H](Cc4ccccc4)C(=O)N2)NC(=O)[C@H](CC(N)=O)NC(=O)[C@@H]2CCCN2C(=O)[C@H](CCCCN)NC(=O)[C@H](CC(=O)O)NC(=O)[C@@H]2CCCN2C(=O)[C@H](CCCCN)NC3=O)NC(=O)[C@H](CO)NC(=O)[C@H](CO)NC(=O)[C@H](CCCNC(=N)N)NC1=O [mBD1] (H-DQYKCLQHGGFCLRSSCPSNTKLQGTCKPDKPNCCKS-OH; disulfide 5-34, 12-27, 17-35; N-terminus and C-terminus assumed)
Agonist efficacy (in words) (mMC5R): full agonist efficacy with micromolar potency
Agonist efficacy (in words) (mMC1R): full agonist efficacy with micromolar potency
Agonist efficacy (in words) (hMC4R [1]): full agonist efficacy with micromolar potency
Agonist efficacy (in words) (hMC1R [2]): full agonist efficacy with micromolar potency
Agonist efficacy (in words) (hMC3R): full agonist efficacy with micromolar potency
Body weight, specific time points (mice): no significance was observed at specific time points
Cumulative food intake, follow-up analysis at specific time points (mice): follow-up analysis did not result in significance at a specific time point
Agonist efficacy (in words) (mMC3R): full agonist efficacy with micromolar potency

Agonist efficacy (in words) (hMC4R [1]): partial agonist stimulation
Agonist efficacy (in words) (hMC1R [2]): partial agonist stimulation
Compound: CC[C@H](C)[C@H](NC(=O)[C@H](CCCCN)NC(=O)[C@@H](NC(=O)[C@H](Cc1ccccc1)NC(=O)[C@@H](NC(=O)[C@@H]1CCCN1C(=O)[C@H](CS)NC(=O)[C@H](C)NC(=O)[C@H](CO)NC(=O)[C@H](Cc1ccc(O)cc1)NC(=O)[C@H](CC(C)C)NC(=O)[C@H](CS)NC(=O)[C@H](CCC(N)=O)NC(=O)CNC(=O)CNC(=O)[C@H](CO)NC(=O)[C@H](CO)NC(=O)[C@@H](NC(=O)[C@H](CS)NC(=O)[C@H](CC(N)=O)NC(=O)[C@H](Cc1ccc(O)cc1)NC(=O)[C@H](Cc1c[nH]cn1)NC(=O)[C@@H](N)CC(=O)O)C(C)C)[C@@H](C)CC)[C@@H](C)O)C(=O)N[C@@H](CCC(N)=O)C(=O)NCC(=O)N[C@H](C(=O)N[C@@H](CS)C(=O)N[C@@H](Cc1ccc(O)cc1)C(=O)N[C@@H](CCCNC(=N)N)C(=O)NCC(=O)N[C@@H](CCCCN)C(=O)N[C@@H](C)C(=O)N[C@@H](CCCCN)C(=O)N[C@@H](CS)C(=O)N[C@@H](CS)C(=O)N[C@@H](CCCCN)C(=O)O)[C@@H](C)O [hBD1red] (H-DHYNCVSSGGQCLYSACPIFTKIQGTCYRGKAKCCK-OH; N-terminus and C-terminus assumed)
Agonist activity at the melanocortin receptors (in words) (melanocortin receptors): no activity at the remaining receptor subtypes

Agonist efficacy (in words) (mMC5R): Full agonist activity
Agonist efficacy (in words) (mMC1R): Full agonist activity
Agonist efficacy (in words) (hMC4R [1]): Full agonist activity
Agonist efficacy (in words) (hMC1R [2]): Full agonist activity
Displacement of radiolabeled NDP-MSH at 100 μM (hMC4R [3]; 100 μM, stably expressing HEK293 cells, 1 h incubation): 50%
Compound: GIINTLQKYYCRVRGGRCAVLSCLPKEEQIGKCSTRGRKCCRRKK (disulfide 11-40, 18-33, 23-41) [hBD3]
Binding affinity (hMC1R [5]): 42 nM
Binding affinity (hMC4R [6]): 110 nM
Effect on NDP-MSH induction of cAMP (MC1R [7]; 100 nM): lower the agonist induction of cAMP
cAMP signal (MC1R [7]; up to 100 nM): no cAMP signal
Effect on NDP-MSH induction of cAMP (MC1R [8]; HEK293 cells expressing the MC1R, 100 nM): lower the agonist induction of cAMP
cAMP response vs maximal response of 1 nM NDP-MSH (MC1R [8]; HEK293 cells expressing the MC1R, 300 nM): lower than the maximal response of 1 nM NDP-MSH
cAMP levels (MC1R [8]; HEK293 cells, 100 and 300 nM): dose dependent increase in cAMP levels
Food intake or body weight change (male Wistar rats [9]): does not result in a statistical change in food intake or body weight change
Effect on α-MSH induction of cAMP (MC1R [10]; 100 nM): lower the agonist induction of cAMP
cAMP signal (MC1R [10]; up to 100 nM): no cAMP signal
Binding affinity (hMC1R [11]): 13.8 nM
Body weight (male Wistar rats [12]): decreased weight gain; also recorded: slower return to pre-fast weight
Food intake (male Wistar rats [12]): decrease food intake; also recorded: significant decreases in food intake; also recorded: consumed less food
